In brackets after ≈: the same amount, converted by molar mass.
Columns and labels:
[1] = Lipophilicity, log D of the compound at pH 7.4; type: physicochemical; conditions: buffer
[2] = test system: Mycobacterium tuberculosis; experiment: Antimycobacterial activity against Mycobacterium tuberculosis H37Rv; type: functional
[3] = Inhibition of Mycobacterium tuberculosis DprE1
[4] = test system: HepG2; experiment: Cytotoxicity against human HepG2 cells assessed as reduction in cell viability; type: cell-based

Structure (SMILES) | logD [1] | MIC [2] [µM] | IC50 [3] [nM] | pIC50 [3] | IC50 [4] [nM]
CC(C(=O)Nc1ccc(Br)cc1)N(C)c1ccc2c(c1)OCCO2 (centres undefined) | 6.7 | 2.5 (≈ 0.978 µg/mL) | 63 | 7.2 | –
CCC(Nc1ccc2c(c1)OCCO2)C(=O)Nc1ccc(Br)cc1 (centres undefined) | 6 | 62 (≈ 24.3 µg/mL) | 3980 | 5.4 | –
COc1cc(NC(C)C(=O)Nc2ccc(Br)cc2)cc(OC)c1 (centres undefined) | – | – | 25100 | 4.6 | –
CNC(=O)C(C)Nc1ccc2c(c1)OCCO2 (centres undefined) | – | > 125 | 31600 | 4.5 | –
CC(Oc1ccc2c(c1)OCCO2)C(=O)Nc1ccc(Br)cc1 (centres undefined) | 6.2 | 12 (≈ 4.54 µg/mL) | 200 | 6.7 | –
CNC(=O)c1ccc(NC(=O)C(C)Nc2ccc3c(c2)OCCO3)cc1 (centres undefined) | 2.4 | – | > 100000 | < 4 | –
CC(Nc1ccc2c(c1)OCCO2)C(=O)Nc1nc2ccccc2[nH]1 (centres undefined) | 3.7 | 62 (≈ 21 µg/mL) | 3980 | 5.4 | –
CC(Nc1ccc2c(c1)OCCO2)C(=O)Nc1ccc(Br)cn1 (centres undefined) | 5.4 | 80 (≈ 30.3 µg/mL) | 6310 | 5.2 | –
CC(Nc1ccc2c(c1)OCCO2)C(=O)Nc1ccc(C(F)(F)F)cc1 (centres undefined) | – | – | 126 | 6.9 | –
CC(Nc1cnc2c(c1)OCCO2)C(=O)Nc1ccc(Br)cc1 (centres undefined) | 4 | 62 (≈ 23.5 µg/mL) | 2000 | 5.7 | –
CC(Nc1ccc2c(c1)OCCCO2)C(=O)Nc1ccc(Br)cc1 (centres undefined) | 5.7 | 4 (≈ 1.57 µg/mL) | 158 | 6.8 | –
CC(Nc1ccc2c(c1)OCCO2)C(=O)Nc1ccc2cc[nH]c2c1 (centres undefined) | 4 | 32 (≈ 10.8 µg/mL) | 794 | 6.1 | –
CC(Nc1ccc2c(c1)OCO2)C(=O)Nc1ccc(Br)cc1 (centres undefined) | – | – | 1000 | 6 | –
O=C1C(Cc2ccc3c(c2)OCCO3)CCCN1c1ccc(Br)cc1 (centres undefined) | 5.8 | 110 (≈ 44.3 µg/mL) | 63100 | 4.2 | –
CC(Nc1ccc2c(c1)OCCO2)C(=O)Nc1ccccc1 (centres undefined) | 4.3 | > 125 | 63100 | 4.2 | –
CC(C)C(Nc1ccc2c(c1)OCCO2)C(=O)Nc1ccc(Br)cc1 (centres undefined) | 6.6 | > 125 | 39800 | 4.4 | –
C[C@@H](Nc1ccc2c(c1)OCCO2)C(=O)Nc1ccc(Br)cc1 | 5.5 | 6.5 (≈ 2.45 µg/mL) | 251 | 6.6 | –
CC(Nc1ccc2c(c1)NC(=O)CO2)C(=O)Nc1ccc(Br)cc1 (centres undefined) | 4.2 | – | > 100000 | < 4 | –
Cc1ccc(NC(=O)C(C)Nc2ccc3c(c2)OCCO3)cc1 (centres undefined) | 4.8 | 125 (≈ 39 µg/mL) | 15800 | 4.8 | –
CC(Nc1ccc2c(c1)NCCC2)C(=O)Nc1ccc(Br)cc1 (centres undefined) | 6 | 125 (≈ 46.8 µg/mL) | 1260 | 5.9 | –
CC(Nc1ccc2c(c1)OCCO2)C(=O)Nc1ccc(Cl)cc1 (centres undefined) | 5.2 | 8 (≈ 2.66 µg/mL) | 398 | 6.4 | –

Structure (SMILES) | logD [1] | MIC [2] [µM] | IC50 [3] [nM] | pIC50 [3] | IC50 [4] [nM]
CC(Nc1ccc2c(c1)OCCO2)C(=O)Nc1ccc(C#N)cc1 (centres undefined) | 4.2 | 31 (≈ 10 µg/mL) | 2000 | 5.7 | –
COc1cccc(NC(C)C(=O)Nc2ccc(Br)cc2)c1 (centres undefined) | – | – | 1590 | 5.8 | –
CC(Cc1ccc2c(c1)OCCO2)C(=O)Nc1ccc(Br)cc1 (centres undefined) | – | 110 (≈ 41.4 µg/mL) | 2000 | 5.7 | –
CC(Nc1ccc2c(c1)OCCO2)C(=O)Nc1ccc(Br)nc1 (centres undefined) | 4.2 | 32 (≈ 12.1 µg/mL) | 1590 | 5.8 | –
CC(Nc1ccc(Br)cc1)C(=O)Nc1ccc2c(c1)OCCO2 (centres undefined) | 5.3 | 125 (≈ 47.2 µg/mL) | 63100 | 4.2 | –
O=C1C(Cc2ccc3c(c2)OCCO3)CCN1c1ccc(Br)cc1 (centres undefined) | 6 | > 125 | 31600 | 4.5 | –
CC(Nc1ccc2c(c1)NCCO2)C(=O)Nc1ccc(Br)cc1 (centres undefined) | 4.8 | > 125 | 2510 | 5.6 | –
O=C(CNc1ccc2c(c1)OCCO2)Nc1ccc(Br)cc1 | 5.1 | 16 (≈ 5.81 µg/mL) | 200 | 6.7 | –
CC(Nc1ccc2c(c1)CCCC2)C(=O)Nc1ccc(Br)cc1 (centres undefined) | 7.7 | 16 (≈ 5.97 µg/mL) | 631 | 6.2 | –
CC(Nc1ccc2c(c1)OCCO2)C(=O)Nc1ccc2cn[nH]c2c1 (centres undefined) | 3 | 31 (≈ 10.5 µg/mL) | 3980 | 5.4 | –
CC(C)(Nc1ccc2c(c1)OCCO2)C(=O)Nc1ccc(Br)cc1 | 6.3 | 4 (≈ 1.57 µg/mL) | 126 | 6.9 | –
CC(Nc1ccc2c(c1)OCCO2)C(=O)Nc1ccc(-c2cnco2)cc1 (centres undefined) | 3.7 | – | > 100000 | < 4 | –
CC(Nc1ccc(Br)cc1)C(=O)Nc1ccc(Br)cc1 (centres undefined) | – | – | 3980 | 5.4 | –
CC(Nc1ccc2c(c1)OCCO2)C(=O)NC1CCCCC1 (centres undefined) | 4.4 | > 125 | 39800 | 4.4 | –
CC(Nc1ccc2c(c1)OCCO2)C(=O)N(C)C (centres undefined) | 2.2 | > 125 | 39800 | 4.4 | –
CC(Nc1ccc2c(c1)OCCO2)C(=O)Nc1ccc(-c2cccnc2)cc1 (centres undefined) | 4.2 | – | > 100000 | < 4 | –
CC(Nc1ccc2c(c1)OCC(=O)N2)C(=O)Nc1ccc(Br)cc1 (centres undefined) | 3.9 | – | > 100000 | < 4 | –
C[C@H](Nc1ccc2c(c1)OCCO2)C(=O)Nc1ccc(Br)cc1 | 5.5 | 13 (≈ 4.9 µg/mL) | 1000 | 6 | –
COc1ccc(NC(C)C(=O)Nc2ccc(Br)cc2)cc1OC (centres undefined) | 5.2 | 40 (≈ 15.2 µg/mL) | 2000 | 5.7 | –
CC(Nc1ccc2c(c1)OCCO2)C(=O)Nc1ccc(Br)cc1 (racemic) | 5.5 | 7.8 (≈ 2.94 µg/mL) | 63 | 7.2 | > 100000
NNC(=O)c1ccncc1 [ISONIAZID] | – | 1.8 (≈ 0.247 µg/mL) | – | – | –
